Format in all cases: biochemical
In assay [1] the target is CDK2 complexed with cyclin A (Homo sapiens, UniProt P24941). Kind of assay: Cyclin dependent kinase activity assay, phosphorylation of synthetic peptide PKTPKKAKKLRRR
The conditions noted are these: 0.1 mM ATP, read-out: CDK 2 Activity*. As for the experimental part:
(§1) The assay of cyclin dependent kinase activity was determined by monitoring the phosphorylation of a synthetic peptide, PKTPKKAKKLRRR. The assay mixture contained 0.1 mM cold ATP, ^33P-γ-ATP (2000-4000 cpm/μL), 0.1 mM peptide, 1 mM DTT, and 10 mM MgCl2 in 100 mM HEPES buffer pH 7.4. The assay mixture, along with inhibitor and CDK enzyme (0.3-0.4 U/mL; either CDK5 complexed with p25, CDK2 complexed with complexed with cyclin A), was mixed together in a microtiter plate in a final volume of 40 μL, sealed and incubated for 2 hours at 30° C. Following incubation, a 15 μL aliquot was added to a Whatman P81 filtration plate containing 100 μL 0.5% phosphoric acid. This mixture was allowed to stand for 5 minutes prior to filtration on a vacuum manifold. The filter plate was washed with 5 successive additions of 300 μL 0.5% phosphoric acid. The filtration plate was air dried for 10 minutes before sealing the bottom. After addition of scintillation fluid to the sealed plate, phosphorylated peptide was quantified in a scintillation counter.

Assay [2] deals with CDK5 complexed with p25 (Homo sapiens, UniProt Q00535). The description is as above. The conditions noted are these: CDK5 complexed with p25, 0.1 mM ATP; read-out: CDK 5 Activity*. As for the experimental part:
as §1

Assay [3] deals with KDR (Homo sapiens, UniProt P35968). Kind of assay: Enzyme assay for  (KDR), IC50 determination. The conditions noted are these: 50 nM KDR, 500 μM ATP. On the procedure:
Enzyme assays for IC50 determinations were performed in 96-well titer plates, in a total reaction volume of 50 μL. Each reaction contained 1.5 μL of appropriate dilutions of inhibitor, 50 mM Hepes, pH 7.4, 1 mM DTT, 10 mM magnesium chloride, 2 mM phospho-poly(E4Y) (Sigma Chemical Company), 500 μM unlabeled ATP, 0.0025 μM [^33P]ATP (Amersham Pharmacia Biotech), and 50 nM KDR. All components except KDR were added to the wells, and the reaction was started by the addition of the enzyme. The reactions were mixed and incubated at room temperature for 1 hr, after which the reactions were quenched by the addition of 50 μL of 8% phosphoric acid. At this point, 90 μL aliquots of the samples were applied to positively charged DEAE 96-well filter plates (Millipore Corporation MADENOB10). The plates were incubated for 30 min at room temperature. The samples were aspirated and the wells were washed 3 times with 200 μL of 0.5% phosphoric acid. To each well, 50 μL of scintillation cocktail was added and counted for 60 sec in a TopCount microplate scintillation counter (Packard Instrument Company). The concentration of a compound that inhibited the activity of KDR by 50% (IC50) was determined based its inhibition curve.

Structures can show the parent of a compound that is named as a salt.

Sequence of CDK5 complexed with p25 (Q00535 whole entry): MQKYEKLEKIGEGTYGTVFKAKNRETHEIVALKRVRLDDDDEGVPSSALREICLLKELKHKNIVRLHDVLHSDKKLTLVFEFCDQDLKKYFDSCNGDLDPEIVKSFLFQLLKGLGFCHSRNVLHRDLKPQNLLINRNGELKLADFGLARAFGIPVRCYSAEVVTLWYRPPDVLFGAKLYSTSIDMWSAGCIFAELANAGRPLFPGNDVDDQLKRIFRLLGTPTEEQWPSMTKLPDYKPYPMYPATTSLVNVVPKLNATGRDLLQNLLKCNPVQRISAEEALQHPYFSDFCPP
Sequence of CDK5 complexed with p25 (Q15078 99-307 partner limits assumed): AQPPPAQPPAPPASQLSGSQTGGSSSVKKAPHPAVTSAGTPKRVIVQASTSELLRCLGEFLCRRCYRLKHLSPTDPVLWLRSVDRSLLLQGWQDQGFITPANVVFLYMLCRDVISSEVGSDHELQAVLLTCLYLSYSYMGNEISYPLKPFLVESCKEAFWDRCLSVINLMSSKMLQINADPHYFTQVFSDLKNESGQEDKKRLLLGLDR
Sequence of KDR (P35968 20-1356): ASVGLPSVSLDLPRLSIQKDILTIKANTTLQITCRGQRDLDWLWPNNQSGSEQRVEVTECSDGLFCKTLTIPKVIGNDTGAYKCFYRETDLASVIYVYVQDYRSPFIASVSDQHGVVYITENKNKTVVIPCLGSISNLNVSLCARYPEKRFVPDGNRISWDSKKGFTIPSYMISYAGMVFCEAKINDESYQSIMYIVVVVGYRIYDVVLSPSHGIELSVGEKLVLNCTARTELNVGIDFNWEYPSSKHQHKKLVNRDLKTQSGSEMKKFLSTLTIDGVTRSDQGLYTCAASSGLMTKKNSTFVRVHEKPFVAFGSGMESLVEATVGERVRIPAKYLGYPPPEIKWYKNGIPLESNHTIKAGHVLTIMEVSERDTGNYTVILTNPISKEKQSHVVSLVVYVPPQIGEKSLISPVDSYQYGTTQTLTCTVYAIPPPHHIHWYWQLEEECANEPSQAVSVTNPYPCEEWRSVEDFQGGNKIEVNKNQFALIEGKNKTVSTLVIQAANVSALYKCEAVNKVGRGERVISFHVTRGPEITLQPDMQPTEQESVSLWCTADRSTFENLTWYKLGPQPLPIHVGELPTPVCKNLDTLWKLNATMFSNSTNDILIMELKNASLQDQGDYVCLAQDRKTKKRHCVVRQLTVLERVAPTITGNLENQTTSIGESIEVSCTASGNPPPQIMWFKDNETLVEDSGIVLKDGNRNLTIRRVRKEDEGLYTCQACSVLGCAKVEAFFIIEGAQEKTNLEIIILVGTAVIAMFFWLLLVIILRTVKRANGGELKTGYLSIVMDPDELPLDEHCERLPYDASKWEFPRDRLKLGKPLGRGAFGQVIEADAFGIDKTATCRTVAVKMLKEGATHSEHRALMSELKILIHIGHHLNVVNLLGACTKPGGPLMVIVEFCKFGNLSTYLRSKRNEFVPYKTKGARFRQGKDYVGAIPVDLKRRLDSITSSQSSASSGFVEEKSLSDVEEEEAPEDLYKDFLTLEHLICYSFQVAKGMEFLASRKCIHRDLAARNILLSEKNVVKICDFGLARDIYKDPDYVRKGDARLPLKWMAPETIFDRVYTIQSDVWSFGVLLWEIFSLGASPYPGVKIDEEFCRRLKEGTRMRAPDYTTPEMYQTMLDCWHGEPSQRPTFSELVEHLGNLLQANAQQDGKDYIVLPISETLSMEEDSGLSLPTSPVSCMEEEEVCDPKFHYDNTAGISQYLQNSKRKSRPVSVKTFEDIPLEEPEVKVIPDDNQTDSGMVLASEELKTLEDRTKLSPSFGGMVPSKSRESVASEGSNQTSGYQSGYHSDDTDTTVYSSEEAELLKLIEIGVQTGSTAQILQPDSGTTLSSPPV

For `NC(=O)N/N=C/c1cc(-c2ccc(O)cc2)ccc1O` [Example 22, 5-(4-Hydroxyphenyl)salicylaldehyde semicarbazone hydrochloride], the IC50 was < 500 nM in assay [1], < 500 nM in assay [2] and 1000 to 20000 nM in assay [3].
For `NC(=S)N/N=C/c1cc(-c2ccc(O)c(F)c2)ccc1O` [Example 23, 5-(3-Fluoro-4-hydroxyphenyl)salicylaldehyde thiosemicarbazone], the IC50 in assay [1] is < 500 nM; in assay [2] it was < 500 nM; in assay [3] it was 1000 to 20000 nM.
As to `NC(=O)N/N=C/c1cc(-c2ccc(O)c(F)c2)ccc1O` [Example 24, 5-(3-Fluoro-4-hydroxyphenyl)salicylaldehyde semicarbazone hydrochloride], the values for the IC50 in assay [1], in assay [2] and in assay [3] were < 500 nM, < 500 nM and 1000 to 20000 nM, respectively.
Consider `NC(=S)N/N=C/c1cc(-c2ccc(O)c(O)c2)ccc1O` [Example 25, 5-(3,4-Dihydroxyphenyl)salicylaldehyde thiosemicarbazone], for which the IC50 in assay [1] was < 500 nM; in assay [2] it was < 500 nM; in assay [3], < 1000 nM.
As to `NC(=S)N/N=C/c1cc(-c2ccc3[nH]ccc3c2)ccc1O` [Example 36, 5-(5-Indolyl)salicylaldehyde thiosemicarbazone], the IC50 in assay [1] was < 500 nM; in assay [2] it was < 500 nM; in assay [3], 20000 to 50000 nM.
For `Nc1nccc(-c2cc(-c3ccc(O)cc3)ccc2O)n1` [Example 57, 3-(2-Amino-pyrimidin-4-yl)-biphenyl-4,4′-diol], the IC50 is < 500 nM in assay [1], < 500 nM in assay [2] and < 1000 nM in assay [3].
Take `Nc1nc(N)nc(-c2cc(-c3ccc(O)cc3)ccc2O)n1` [Example 58, 3-(4.6-Diamino-[1,3,5]triazin-2-yl)-biphenyl-4,4′-diol]: the IC50 in assay [1] was < 500 nM; in assay [2], < 500 nM; in assay [3], < 1000 nM.
For `Nc1nccc(-c2cc(-c3ccc(C=O)o3)ccc2O)n1` [Example 59, 5-[3-(2-Amino-pyrimidin-4-yl)-4-hydroxy-phenyl]-furan-2-carbaldehyde], the IC50 in assay [1] is 500 to 2000 nM; in assay [2] it was 500 to 2000 nM; in assay [3] it was < 1000 nM.
In the case of `Nc1nccc(-c2cc(-c3ccc4[nH]ccc4c3)ccc2O)n1` [Example 60, 2-(2-Amino-pyrimidin-4-yl)-4-(1H-indol-5-yl)-phenol], the IC50 in assay [1] was 2000 to 5000 nM; in assay [2], < 500 nM; in assay [3], < 1000 nM.
As for `Nc1nc(-c2cc(-c3ccc(O)cc3)ccc2O)cs1` [Example 61, 3-(2-Amino-thiazol-4-yl)-biphenyl-4,4′-diol], the results for the IC50 in assay [1], in assay [2] and in assay [3] were < 500 nM, < 500 nM and 1000 to 20000 nM, respectively.
For `Nc1cc(-c2ccc(O)c(-c3ccnc(N)n3)c2)ccn1` [Example 67, 4-(2-Amino-pyridin-4-yl)-2-(2-amino-pyrimidin-4-yl)-phenol], the results for the IC50 in assay [1] and in assay [3] were < 500 nM and < 1000 nM, respectively.
Regarding `Nc1nc(-c2cc(-c3ccc(O)cc3)ccc2O)cc(N2CCC[C@@H]2CO)n1` [Example 80, 3-[2-Amino-6-(2S-hydroxymethyl-pyrrolidin-1-yl)-pyrimidin-4-yl]-biphenyl-4,4′-diol], the values for the IC50 in assay [1], in assay [2] and in assay [3] were < 500 nM, < 500 nM and 1000 to 20000 nM, respectively.
In the case of `Nc1nc(-c2cc(-c3ccc(O)cc3)ccc2O)cc(N2CCOCC2)n1` [Example 81, 3-(2-Amino-6-morpholin-4-yl-pyrimidin-4-yl)-biphenyl-4,4′-diol], the IC50 in assay [1] is < 500 nM; in assay [2], < 500 nM; in assay [3] it was 1000 to 20000 nM.
Regarding `Nc1nc(-c2cc(-c3ccc(O)cc3)ccc2O)cc(-c2ccccc2CO)n1` [Example 83, 3-[2-Amino-6-(2-hydroxymethyl-phenyl)-pyrimidin-4-yl-biphenyl-4,4]-diol], the IC50 in assay [1] is < 500 nM; in assay [2], < 500 nM; in assay [3], < 1000 nM.
As for `Nc1nc(-c2cccc(CO)c2)cc(-c2cc(-c3ccc(O)cc3)ccc2O)n1` [Example 84, 3-[2-Amino-6-(3-hydroxymethyl-phenyl)-pyrimidin-4-yl]-biphenyl-4,4′-diol], the IC50 in assay [1] is < 500 nM; in assay [2], < 500 nM; in assay [3], < 1000 nM.
For the molecule `Nc1nc(-c2ccc(CO)cc2)cc(-c2cc(-c3ccc(O)cc3)ccc2O)n1` [Example 85, 3-[2-Amino-6-(4-hydroxymethyl-phenyl)-pyrimidin-4-yl]-biphenyl-4,4′-diol], the IC50 in assay [1] is < 500 nM; in assay [2] it was < 500 nM; in assay [3], < 1000 nM.
With `Nc1nc(N[C@@H](CO)Cc2ccccc2)cc(-c2cc(-c3ccc(O)cc3)ccc2O)n1` [Example 86, 3-[2-Amino-6-(1R-benzyl-2-hydroxy-ethylamino)-pyrimidin-4-yl]-biphenyl-4,4′-diol], the IC50 in assay [1] is < 500 nM; in assay [2] it was < 500 nM; in assay [3], 1000 to 20000 nM.
Molecule `Nc1nc(NCCN2CCOCC2)cc(-c2cc(-c3ccc(O)cc3)ccc2O)n1` [Example 105, 3-[2-Amino-6-(2-morpholin-4-yl-ethylamino)-pyrimidin-4-yl]-biphenyl-4,4′-diol] gave an IC50 in assay [3] of 1000 to 20000 nM.
Take `Nc1nc(NCCc2ccccn2)cc(-c2cc(-c3ccc(O)cc3)ccc2O)n1` [Example 106, 3-[2-Amino-6-(2-pyridin-2-yl-ethylamino)-pyrimidin-4-yl]-biphenyl-4,4′-diol]: the IC50 in assay [3] was < 1000 nM.
In the case of `Nc1nc(-c2cc(-c3ccc(O)cc3)ccc2O)cc(N2CCSCC2)n1` [Example 107, 3-(2-Amino-6-thiomorpholin-4-yl-pyrimidin-4-yl)-biphenyl-4,4′-diol], the IC50 in assay [3] lay within 1000 to 20000 nM.
For the molecule `Nc1nc(NCc2ccccc2-c2ccccc2)cc(-c2cc(-c3ccc(O)cc3)ccc2O)n1` [Example 108, 3-{2-Amino-6-[(biphenyl-2-ylmethyl)-amino]-pyrimidin-4-yl}-biphenyl-4,4′-diol], the IC50 in assay [3] was < 1000 nM.
As to `Nc1nc(Nc2cccc(Cl)c2)cc(-c2cc(-c3ccc(O)cc3)ccc2O)n1` [Example 109, 3-[2-Amino-6-(3-chloro-phenylamino)-pyrimidin-4-yl]-biphenyl-4,4′-diol], the IC50 in assay [3] is < 1000 nM.
Take `Nc1nc(Nc2ccc(Cl)cc2)cc(-c2cc(-c3ccc(O)cc3)ccc2O)n1` [Example 110, 3-[2-Amino-6-(4-chloro-phenylamino)-pyrimidin-4-yl]-biphenyl-4,4′-diol]: the IC50 in assay [3] was < 1000 nM.
Turning to `COc1cccc(Nc2cc(-c3cc(-c4ccc(O)cc4)ccc3O)nc(N)n2)c1` [Example 111, 3-[2-Amino-6-(3-methoxy-phenylamino)-pyrimidin-4-yl]-biphenyl-4,4′-diol], the IC50 in assay [3] was < 1000 nM.
For `Nc1nc(N[C@@H](CO)c2ccccc2)cc(-c2cc(-c3ccc(O)cc3)ccc2O)n1` [Example 112, 3-[2-Amino-6-(2-hydroxy-1-phenyl-ethylamino)-pyrimidin-4-yl]-biphenyl-4,4′-diol], the IC50 in assay [3] was < 1000 nM.
In assay [3], `Nc1nc(-c2ccsc2)cc(-c2cc(-c3ccc(O)cc3)ccc2O)n1` [Example 113, 3-(2-Amino-6-thiophen-3-yl-pyrimidin-4-yl)-biphenyl-4,4′-diol] showed an IC50 of 1000 to 20000 nM.
In the case of `Nc1nc(-c2ccc3[nH]ccc3c2)cc(-c2cc(-c3ccc(O)cc3)ccc2O)n1` [Example 114], the IC50 in assay [3] was < 1000 nM.
Take `Nc1nc(NCc2cccc(F)c2)cc(-c2cc(-c3ccc(O)cc3)ccc2O)n1` [Example 115, 3-[2-Amino-6-(3-fluoro-benzylamino)-pyrimidin-4-yl]-biphenyl-4,4′-diol]: the IC50 in assay [3] is 1000 to 20000 nM.
The same measure, in the same setting: the value for `Nc1nc(NCc2ccccc2F)cc(-c2cc(-c3ccc(O)cc3)ccc2O)n1` [Example 116] was < 1000 nM.
The same measure, in the same setting: the value for `COc1cccc(CNc2cc(-c3cc(-c4ccc(O)cc4)ccc3O)nc(N)n2)c1` [Example 117, 3-[2-Amino-6-(3-methoxy-benzylamino)-pyrimidin-4-yl]-biphenyl-4,4′-diol] was < 1000 nM; that for `COc1ccc(CNc2cc(-c3cc(-c4ccc(O)cc4)ccc3O)nc(N)n2)cc1` [Example 118, 3-[2-Amino-6-(4-methoxy-benzylamino)-pyrimidin-4-yl]-biphenyl-4,4′-diol] was < 1000 nM.
Molecule `Nc1nc(Nc2ccc(O)cc2F)cc(-c2cc(-c3ccc(O)cc3)ccc2O)n1` [Example 119, 3-[2-Amino-6-(2-fluoro-4-hydroxyphenylamino)-pyrimidin-4-yl]-biphenyl-4,4′-diol] yielded an IC50 in assay [3] of 1000 to 20000 nM.

Values taken from patent publication US20030187007A1, “Inhibitors of protein kinase for the treatment of disease” (priority 2001, published 2003).
